Test results as given in patent US7572831B2, “Composition containing chalcone” (Angiolab, Inc., priority 2002, dated 2009).

Columns and labels:
[1] = Skin sensitization by human patch test; type: in vivo; conditions: interpretation of skin average reactivity
Protocol: The effect of chalcone on skin sensitization was studied by general method of skin patch test. The skin patch test was done against human subjects of ten adults. Test patch (2 cm×2 cm) included 0.2 ml of cream containing 0.01%-1.0% chalcone. The patches were applied to the backs of subjects. The patch was removed after 48 hours or 96 hours, and the skin responses of subjects were recorded and evaluated as shown in Table 4. The skin average reactivity calculated by equation 1 was interpreted as the degree of skin sensitivity in Table 5. According to the skin patch test, chalcone was nonreactive to skin sensitization (Table 6).

[2] = system: UVB-induced wrinkle formation; experiment: Skin photoaging, UVB-induced wrinkle formation; type: in vivo, albino hairless HOS:HR1 mice; conditions: topical, 15 week
Description: Effects of chalcone on skin photoaging were studied using mouse skin wrinkle induced by UV irradiation. 6-week male albino hairless HOS:HR1 mice were used for wrinkle formation induced by long-term repeated UVB irradiation. Wrinkles were formed according to the modified method described by Bissett et al (Photochem Photobiol 46: 367-378, 1987) The dose was set at 60 mJ per cm^2 for 4 weeks and increased to 120 mJ per cm^2 for 11 weeks. The frequency of irradiation was set at three times per week. In this protocol, wrinkles began to be observed macroscopically in the dorsal region from about 8 week after initiation of irradiation, and deep wrinkles were formed at 12 week. 30 hairless mice were divided into three groups, and only one of ethanol-propylene glycol (7:3) (control), 1% chalcone in ethanol-propylene glycol (7:3), or 5% chalcone in ethanol-propylene glycol (7:3) was applied on each groups for 15 weeks. 100 μl of the experimental agent was applied to the dorsal region three times weekly just after UVB exposure. At 15 week after initiation of repeated UVB irradiation, each hairless mouse was anesthetized, and the degree of wrinkle formation was evaluated according to Table 3. […] [table]

[3] = system: rat aortic rings; experiment: Rat aortic ring angiogenesis assay; type: cell-based, Sprague Dawley rats; conditions: day 10; for Microvessel density: control 19.5±1.8
Description: The effect of chalcone or its derivatives on angiogenesis was studied by culturing aortic explants in three-dimensional matrix gels according to the procedure of Kruger and Figg (Clinical Cancer Research 7:1867-1872, 2001). Thoracic aortas were excised from 8-week-old male Sprague Dawley rats and the fibroadipose tissue was removed. The aortas were sectioned into 1-mm-long cross-sections, rinsed with Human Endothelial-SFM (GIBCO), placed on the Matrigel-coated wells, covered with additional 50 ul Matrigel, and allowed to gel for more than 30 min at 37° C., 5% CO2. All the rings were cultured in Human Endothelial-SFM (GIBCO) supplemented with 200 ug/ml of ECGS (Endothelial Cell Growth Supplement, Sigma) as an angiogenesis inducer. Chalcone diluted with ethanol was added to the culture medium at final concentrations of 1 uM and 100 uM. 1% of ethanol only was added to the culture medium as a vehicle control. All assays were performed by using 5 aortic rings per sample. Aortic rings were photographed on day 10. The area of angiogenic sprouting was calculated using Image-Pro Plus software program (Media Cybernetics). Microvessel densities are reported in percent area.

O=C(/C=C/c1ccccc1)c1ccccc1 [Chalcone]
Result of skin patch test (degree of skin sensitivity) [1]: nonreactive (0.0-0.9) | UVB-induced wrinkle formation vs vehicle-treated group ([2]; 1% chalcone in ethanol-propylene glycol (7:3)): significantly inhibited | UVB-induced wrinkle formation vs vehicle-treated group ([2]; 5% chalcone in ethanol-propylene glycol (7:3)): significantly inhibited | Microvessel density ([3]; 1 uM): 18.5±1.2 percent area | Microvessel density ([3]; 100 uM): 1.7±0.1 percent area | inhibition at 1 µM ([3]; Rattus norvegicus, 240 h, 1 uM, read-out: Inhibition of microvessel formation compared to control): 5.1% | inhibition at 100 µM ([3]; Rattus norvegicus, 240 h, 100 uM, read-out: Inhibition of microvessel formation compared to control): 91.3%
